This is an account of results in PubChem BioAssay (NCI).

Some test systems named below: NCI/ADR-RES ovarian; IGROV1 ovarian; KM12 colon; SK-MEL-28 melanoma; A549 NSCLC; MDA-MB-231 breast; NCI-H460 lung; SK-MEL-2 melanoma; HS 578T breast; NCI-H226 lung.
Common to all, as to test: DTP human tumour cell line panel, 48 h

SMILES strings stand for the structures. Several values for one entry are separate records, joined by “and”; a condition that tells them apart may be missing. Equal values may be shown once.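 These data come from cells grown in 96-well plates and exposed to compound for 48 hours at five concentrations. At the GI50, growth is halved. TGI is the concentration that stops growth completely.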

Usually GI50 stands for the concentration at which growth is held to half of that of the control. The term TGI denotes the concentration giving total growth inhibition. A lower TGI goes with more potent growth arrest. Turning to `CCN1C(=O)N(CC)C2C1NN=c1s/c(=C\c3ccc(Br)cc3)c(=O)n12` (centres undefined), the concentration for 50% growth inhibition (GI50) in the experiment on NCI/ADR-RES ovarian was 0.0626 µM; with IGROV1 ovarian it was 0.275 µM; in the experiment on KM12 colon it was 0.0604 µM; in the experiment with SK-MEL-28 melanoma it was more than 53.8 µM; with A549 NSCLC, 0.313 µM; in the experiment with MDA-MB-231 breast, 0.306 µM. The GI50 was 0.119 µM in the experiment on NCI-H460 lung, 4.91 µM with SK-MEL-2 melanoma and 0.194 µM in the experiment on HS 578T breast. Further, the TGI in the experiment with NCI/ADR-RES ovarian was more than 100 µM; in the experiment on IGROV1 ovarian it was more than 82.2 µM; in the experiment on KM12 colon, more than 100 µM; in the experiment on SK-MEL-28 melanoma it was more than 100 µM; with A549 NSCLC, more than 100 µM; with MDA-MB-231 breast, more than 76.6 µM. The TGI in the experiment with NCI-H460 lung, with SK-MEL-2 melanoma, in the experiment on HS 578T breast and in the experiment on NCI-H226 lung was more than 100 µM throughout.
Regarding `CC1(/C=C/c2ccc(-c3ccccc3)cc2)CCn2cnc3ncnc(c32)N1O` (centres undefined), the GI50 is 0.348 µM in the experiment on NCI/ADR-RES ovarian; 0.337 µM with IGROV1 ovarian; 0.415 µM with KM12 colon; 0.656 µM in the experiment with SK-MEL-28 melanoma; 0.466 µM in the experiment with A549 NSCLC; 0.509 µM in the experiment on MDA-MB-231 breast. Also, the concentration for 50% growth inhibition (GI50) with NCI-H460 lung was 0.264 µM; in the experiment with SK-MEL-2 melanoma it was 1.42 µM; with HS 578T breast, 3.37 µM; in the experiment on NCI-H226 lung it was 0.571 µM. The TGI with NCI/ADR-RES ovarian came out at 28.7 µM; with IGROV1 ovarian, 14.1 µM; with KM12 colon, 23.1 µM; in the experiment on SK-MEL-28 melanoma, 20 µM; with A549 NSCLC it was 23.5 µM; with MDA-MB-231 breast, 63.2 µM. The TGI with NCI-H460 lung was 8.25 µM; in the experiment on SK-MEL-2 melanoma, 41.2 µM; in the experiment with HS 578T breast, 30.9 µM; in the experiment with NCI-H226 lung it was 20.2 µM.
`CN1CCN(CCCn2c3c(sc4ncccc43)c(=O)n3nnc(-c4ccccc4)c23)CC1`: the GI50 was 1.95 µM in the experiment with NCI/ADR-RES ovarian; 1.69 µM in the experiment with IGROV1 ovarian; 1.55 µM in the experiment on KM12 colon; 18 µM in the experiment on SK-MEL-28 melanoma; 1.54 µM with A549 NSCLC; 1.59 µM with MDA-MB-231 breast. The GI50 is 1.65 µM with NCI-H460 lung, 21.6 µM with SK-MEL-2 melanoma, 4.82 µM in the experiment on HS 578T breast and 15.1 µM with NCI-H226 lung. In addition, the concentration for total growth inhibition (TGI) was 4.77 µM with NCI/ADR-RES ovarian; 4.22 µM with IGROV1 ovarian; 3.17 µM with KM12 colon; 32.2 µM in the experiment on SK-MEL-28 melanoma; 2.92 µM with A549 NSCLC; 3.04 µM with MDA-MB-231 breast. Further, the TGI is 3.37 µM in the experiment on NCI-H460 lung, 39 µM with SK-MEL-2 melanoma, 12.3 µM in the experiment with HS 578T breast and 31.9 µM in the experiment with NCI-H226 lung.
As for `Cn1cc(-c2nc(-c3c[nH]c4ccccc34)cs2)c2cccnc21`, the GI50 in the experiment with NCI/ADR-RES ovarian is 0.11 µM; in the experiment on IGROV1 ovarian, 1.13 µM; with KM12 colon, 0.314 µM; in the experiment on SK-MEL-28 melanoma it was 0.71 µM; in the experiment on A549 NSCLC it was 0.608 µM; with MDA-MB-231 breast, 1.29 µM. In addition, the GI50 was 0.339 µM with NCI-H460 lung, 0.353 µM with SK-MEL-2 melanoma, 0.424 µM in the experiment with HS 578T breast and 0.578 µM with NCI-H226 lung. Also, the total growth inhibition concentration (TGI) with NCI/ADR-RES ovarian was 3.37 µM; in the experiment on IGROV1 ovarian it was more than 100 µM; in the experiment on KM12 colon, 22.8 µM; with SK-MEL-28 melanoma, more than 100 µM; with A549 NSCLC, more than 100 µM; in the experiment on MDA-MB-231 breast it was more than 100 µM. For the same compound, the total growth inhibition concentration (TGI) was more than 100 µM in the experiment on NCI-H460 lung, 51.8 µM in the experiment on SK-MEL-2 melanoma, more than 85.1 µM in the experiment on HS 578T breast and more than 100 µM with NCI-H226 lung.
In the case of `Nc1[nH]c(=S)[nH]c(=O)c1N=Nc1c(Br)cc(S(N)(=O)=O)cc1Br`, the TGI in the experiment on NCI/ADR-RES ovarian, in the experiment on IGROV1 ovarian, with KM12 colon, in the experiment with SK-MEL-28 melanoma, with A549 NSCLC and in the experiment with MDA-MB-231 breast was more than 100 µM in each case. For the same compound, the concentration for total growth inhibition (TGI) in the experiment with NCI-H460 lung, in the experiment on SK-MEL-2 melanoma, with HS 578T breast and with NCI-H226 lung was more than 100 µM in each case.
Consider `CC(=O)OCc1cc[c]([Hg][Cl])o1`, for which the GI50 is 10.8 µM in the experiment with NCI/ADR-RES ovarian; 3.14 µM in the experiment on IGROV1 ovarian; 16.8 µM in the experiment on KM12 colon; 2.73 µM in the experiment with SK-MEL-28 melanoma; 21.8 µM in the experiment with A549 NSCLC; 2.59 µM in the experiment with MDA-MB-231 breast. The GI50 is 15.5 µM with NCI-H460 lung, 16.7 µM in the experiment with SK-MEL-2 melanoma, 9.99 µM in the experiment on HS 578T breast and 19.4 µM in the experiment on NCI-H226 lung. Further, the TGI with NCI/ADR-RES ovarian was 39.1 µM; in the experiment on IGROV1 ovarian it was 10.4 µM; in the experiment on KM12 colon it was 42.2 µM; in the experiment with SK-MEL-28 melanoma, 7.84 µM; with A549 NSCLC, 43.2 µM; with MDA-MB-231 breast, 7.81 µM. For the same compound, the concentration for total growth inhibition (TGI) worked out at 45.6 µM in the experiment with NCI-H460 lung, 32.2 µM in the experiment on SK-MEL-2 melanoma, 65.6 µM in the experiment with HS 578T breast and 45.5 µM in the experiment on NCI-H226 lung.
As to `OCC1OC(N2CCN(C3OC(CO)C(O)C(O)C3O)CC2)C(O)C(O)C1O` (centres undefined), the concentration for total growth inhibition (TGI) with NCI/ADR-RES ovarian, in the experiment on IGROV1 ovarian, with KM12 colon, in the experiment on SK-MEL-28 melanoma, in the experiment on A549 NSCLC and with MDA-MB-231 breast was more than 100 µM throughout. The total growth inhibition concentration (TGI) in the experiment on NCI-H460 lung, in the experiment with SK-MEL-2 melanoma, in the experiment with HS 578T breast and in the experiment with NCI-H226 lung was more than 100 µM each time.
For the compound `Cn1cc(-c2[nH]c3cc(NC(=O)[C@H](N)C4CCCCC4)cc4c3c2C=NNC4=O)cn1`, the GI50 in the experiment with NCI/ADR-RES ovarian was 9.8 µM; in the experiment with IGROV1 ovarian, 0.603 µM and 0.367 µM; with KM12 colon, 1.66 µM and 0.95 µM; with SK-MEL-28 melanoma, 7.99 µM; in the experiment on A549 NSCLC, 3.63 µM and 3.85 µM; in the experiment on MDA-MB-231 breast, 0.866 µM and 0.562 µM. Further, the GI50 with NCI-H460 lung is 4.11 µM and 3.59 µM; in the experiment on SK-MEL-2 melanoma it was 0.262 µM; with HS 578T breast it was 0.185 µM and 0.247 µM; in the experiment on NCI-H226 lung, 0.963 µM and 0.398 µM. Besides, the concentration for total growth inhibition (TGI) in the experiment on NCI/ADR-RES ovarian was more than 74.4 µM; in the experiment with IGROV1 ovarian it was 14.3 µM and > 10 µM; in the experiment on KM12 colon, 12.7 µM and > 10 µM; with SK-MEL-28 melanoma it was 21.9 µM and > 10 µM; with A549 NSCLC it was 16.9 µM and > 10 µM; in the experiment with MDA-MB-231 breast, 12.4 µM and > 10 µM. The concentration for total growth inhibition (TGI) in the experiment on NCI-H460 lung is 19.9 µM and > 10 µM; with SK-MEL-2 melanoma, more than 10 µM; in the experiment on HS 578T breast it was 2.59 µM and 1.81 µM; in the experiment on NCI-H226 lung, 17.8 µM and > 10 µM.
